# Measured values: ChEMBL document CHEMBL1201862, “PubChem BioAssay data set” (2004)
#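 Results reflect a 48-hour exposure of cells in 96-well plates to compound at five concentrations. GI50: concentration for 50% inhibition of growth.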 The source made the active and inactive calls. Cut-off read from the data, not from the text of the source: active = GI50 up to about 1.1 µM and inactive = higher.
# Key:
# Test in all cases: NCI-60 cell line screen, 48 h
# UACC-257 = system: UACC-257
# HCT-15 = system: HCT-15
# IGROV-1 = system: IGROV-1
# SK-MEL-5 = system: SK-MEL-5
# NCI-H460 = system: NCI-H460
# OVCAR-8 = system: OVCAR-8
# NCI/ADR-RES = system: NCI/ADR-RES
# RPMI-8226 = system: RPMI-8226
# NCI-H522 = system: NCI-H522
# COLO 205 = system: COLO 205
# OVCAR-4 = system: OVCAR-4
# SK-OV-3 = system: SK-OV-3
# NCI-H226 = system: NCI-H226
# UO-31 = system: UO-31
# OVCAR-5 = system: OVCAR-5
# OVCAR-3 = system: OVCAR-3
# HCC 2998 = system: HCC 2998
# SK-MEL-28 = system: SK-MEL-28
# NCI-H23 = system: NCI-H23
# DU-145 = system: DU-145
# PC-3 = system: PC-3
# CAKI-1 = system: CAKI-1
# ACHN = system: ACHN
# MOLT-4 = system: MOLT-4
# SNB-75 = system: SNB-75
# MCF7 = system: MCF7
# HT-29 = system: HT-29
# RXF 393 = system: RXF 393
# SF-539 = system: SF-539
# MDA-MB-435 = system: MDA-MB-435
# TK-10 = system: TK-10
# HOP-62 = system: HOP-62
# SR = system: SR
# 786-0 = system: 786-0
# SW-620 = system: SW-620
# HL-60 = system: HL-60
# M14 = system: M14
# LOX IMVI = system: LOX IMVI
# SF-268 = system: SF-268
# A549 = system: A549
# CCRF-CEM = system: CCRF-CEM
# Malme-3M = system: Malme-3M
# EKVX = system: EKVX
# SNB-19 = system: SNB-19
# BT-549 = system: BT-549
# SN12C = system: SN12C
# SF-295 = system: SF-295
# T47D = system: T47D
# MDA-N = system: MDA-N
# MDA-MB-231 = system: MDA-MB-231
# K562 = system: K562
# HCT-116 = system: HCT-116
# Hs-578T = system: Hs-578T
# SK-MEL-2 = system: SK-MEL-2
# U-251 = system: U-251
# KM12 = system: KM12
# UACC-62 = system: UACC-62
# A498 = system: A498
# HOP-92 = system: HOP-92
compound,measurement,setting,value
CC(=O)N1C(c2[nH]c3ccccc3c2Cc2ccccc2)CCN1c1ccccc1 (configuration not stated),GI50,UACC-257,> 10 µM (inactive)
same,GI50,HCT-15,> 10 µM
same,GI50,IGROV-1,> 10 µM (inactive)
same,GI50,SK-MEL-5,> 10 µM (inactive)
same,GI50,NCI-H460,5.22 µM (inactive)
same,GI50,OVCAR-8,> 10 µM (inactive)
same,GI50,NCI/ADR-RES,9.02 µM (inactive)
same,GI50,RPMI-8226,6.49 µM (inactive)
same,GI50,NCI-H522,8.47 µM (inactive)
same,GI50,COLO 205,8.81 µM (inactive)
same,GI50,OVCAR-4,> 10 µM (inactive)
same,GI50,SK-OV-3,> 10 µM (inactive)
same,GI50,NCI-H226,> 10 µM (inactive)
same,GI50,UO-31,8.73 µM (inactive)
same,GI50,OVCAR-5,> 10 µM (inactive)
same,GI50,OVCAR-3,> 10 µM (inactive)
same,GI50,HCC 2998,5.97 µM (inactive)
same,GI50,SK-MEL-28,> 10 µM (inactive)
same,GI50,NCI-H23,8.59 µM (inactive)
same,GI50,DU-145,> 10 µM (inactive)
same,GI50,PC-3,3.24 µM (inactive)
same,GI50,CAKI-1,8.47 µM (inactive)
same,GI50,ACHN,3.04 µM (inactive)
same,GI50,MOLT-4,4.4 µM (inactive)
same,GI50,SNB-75,5.83 µM (inactive)
same,GI50,MCF7,8.45 µM (inactive)
same,GI50,HT-29,> 10 µM (inactive)
same,GI50,RXF 393,4.16 µM (inactive)
same,GI50,SF-539,> 10 µM (inactive)
same,GI50,MDA-MB-435,9.06 µM (inactive)
same,GI50,TK-10,> 10 µM (inactive)
same,GI50,HOP-62,> 10 µM (inactive)
same,GI50,SR,4.81 µM (inactive)
same,GI50,786-0,> 10 µM (inactive)
same,GI50,SW-620,> 10 µM (inactive)
same,GI50,HL-60,5.42 µM (inactive)
same,GI50,M14,7.93 µM (inactive)
same,GI50,LOX IMVI,> 10 µM (inactive)
same,GI50,SF-268,4.72 µM (inactive)
same,GI50,A549,4.88 µM (inactive)
same,GI50,CCRF-CEM,3.66 µM (inactive)
same,GI50,Malme-3M,> 10 µM (inactive)
same,GI50,EKVX,> 10 µM (inactive)
same,GI50,SNB-19,> 10 µM (inactive)
same,GI50,BT-549,> 10 µM (inactive)
same,GI50,SN12C,> 10 µM (inactive)
same,GI50,SF-295,4.35 µM (inactive)
same,GI50,T47D,6.41 µM (inactive)
same,GI50,MDA-N,7.29 µM (inactive)
same,GI50,MDA-MB-231,> 10 µM (inactive)
same,GI50,K562,3.05 µM (inactive)
same,GI50,HCT-116,4.72 µM (inactive)
same,GI50,Hs-578T,9.31 µM (inactive)
same,GI50,SK-MEL-2,> 10 µM (inactive)
Nc1cc2ncnn2c(SCC(=O)N/N=C/C(Br)=C\c2ccccc2)n1,GI50,UACC-257,9.62 µM (inactive)
same,GI50,HCT-15,18.1 µM
same,GI50,IGROV-1,11.5 µM (inactive)
same,GI50,SK-MEL-5,13.4 µM (inactive)
same,GI50,NCI-H460,17.3 µM (inactive)
same,GI50,OVCAR-8,15.9 µM (inactive)
same,GI50,NCI/ADR-RES,25.5 µM (inactive)
same,GI50,RPMI-8226,10.6 µM (inactive)
same,GI50,NCI-H522,10.6 µM (inactive)
same,GI50,COLO 205,19.1 µM (inactive)
same,GI50,NCI-H226,20 µM (inactive)
same,GI50,UO-31,15.5 µM (inactive)
same,GI50,OVCAR-5,22.1 µM (inactive)
same,GI50,OVCAR-3,18.5 µM (inactive)
same,GI50,HCC 2998,19.9 µM (inactive)
same,GI50,SK-MEL-28,16 µM (inactive)
same,GI50,NCI-H23,10.8 µM (inactive)
same,GI50,DU-145,> 10 µM (inactive)
same,GI50,U-251,5.24 µM (inactive)
same,GI50,PC-3,12.6 µM (inactive)
same,GI50,CAKI-1,17.9 µM (inactive)
same,GI50,ACHN,16.9 µM (inactive)
same,GI50,MOLT-4,12.4 µM (inactive)
same,GI50,SNB-75,20.1 µM (inactive)
same,GI50,MCF7,14.7 µM (inactive)
same,GI50,HT-29,14.8 µM (inactive)
same,GI50,RXF 393,15.8 µM (inactive)
same,GI50,SF-539,16.7 µM (inactive)
same,GI50,MDA-MB-435,15 µM (inactive)
same,GI50,TK-10,31.8 µM (inactive)
same,GI50,HOP-62,33.6 µM (inactive)
same,GI50,SR,10.6 µM (inactive)
same,GI50,786-0,15.1 µM (inactive)
same,GI50,SW-620,16.4 µM (inactive)
same,GI50,HL-60,11.9 µM (inactive)
same,GI50,LOX IMVI,16 µM (inactive)
same,GI50,A549,16.3 µM (inactive)
same,GI50,CCRF-CEM,5.77 µM (inactive)
same,GI50,Malme-3M,12.1 µM (inactive)
same,GI50,EKVX,22.5 µM (inactive)
same,GI50,SNB-19,31 µM (inactive)
same,GI50,KM12,17.9 µM (inactive)
same,GI50,BT-549,17.3 µM (inactive)
same,GI50,SN12C,17.3 µM (inactive)
same,GI50,SF-295,21.8 µM (inactive)
same,GI50,T47D,3.49 µM (inactive)
same,GI50,MDA-N,16.2 µM (inactive)
same,GI50,MDA-MB-231,15.5 µM (inactive)
same,GI50,K562,12.8 µM (inactive)
same,GI50,HCT-116,21.7 µM (inactive)
same,GI50,Hs-578T,23.1 µM (inactive)
same,GI50,UACC-62,7.23 µM (inactive)
CC(C)=CCOc1cc(NC(=S)c2ccoc2C)ccc1Cl [UC 781],GI50,UACC-257,> 100 µM (inactive)
same,GI50,HCT-15,> 100 µM
same,GI50,IGROV-1,65.2 µM (inactive)
same,GI50,SK-MEL-5,> 100 µM (inactive)
same,GI50,NCI-H460,> 100 µM (inactive)
same,GI50,OVCAR-8,34.8 µM (inactive)
same,GI50,NCI/ADR-RES,> 100 µM (inactive)
same,GI50,RPMI-8226,> 100 µM (inactive)
same,GI50,NCI-H522,> 100 µM (inactive)
same,GI50,COLO 205,> 100 µM (inactive)
same,GI50,OVCAR-4,> 100 µM (inactive)
same,GI50,SK-OV-3,> 100 µM (inactive)
same,GI50,NCI-H226,57.4 µM (inactive)
same,GI50,UO-31,> 100 µM (inactive)
same,GI50,OVCAR-5,> 100 µM (inactive)
same,GI50,OVCAR-3,> 100 µM (inactive)
same,GI50,HCC 2998,> 100 µM (inactive)
same,GI50,SK-MEL-28,> 100 µM (inactive)
same,GI50,NCI-H23,> 100 µM (inactive)
same,GI50,DU-145,> 100 µM (inactive)
same,GI50,U-251,48.5 µM (inactive)
same,GI50,PC-3,> 100 µM (inactive)
same,GI50,CAKI-1,> 100 µM (inactive)
same,GI50,ACHN,> 100 µM (inactive)
same,GI50,MOLT-4,9.38 µM (inactive)
same,GI50,SNB-75,16.3 µM (inactive)
same,GI50,MCF7,> 100 µM (inactive)
same,GI50,A498,> 100 µM (inactive)
same,GI50,HT-29,> 100 µM (inactive)
same,GI50,RXF 393,> 100 µM (inactive)
same,GI50,SF-539,> 100 µM (inactive)
same,GI50,MDA-MB-435,> 100 µM (inactive)
same,GI50,TK-10,> 100 µM (inactive)
same,GI50,HOP-62,84.1 µM (inactive)
same,GI50,SR,> 100 µM (inactive)
same,GI50,786-0,> 100 µM (inactive)
same,GI50,SW-620,> 100 µM (inactive)
same,GI50,LOX IMVI,14.1 µM (inactive)
same,GI50,HOP-92,8.77 µM (inactive)
same,GI50,SF-268,45.5 µM (inactive)
same,GI50,A549,> 100 µM (inactive)
same,GI50,CCRF-CEM,39.6 µM (inactive)
same,GI50,Malme-3M,> 100 µM (inactive)
same,GI50,EKVX,> 100 µM (inactive)
same,GI50,SNB-19,81.1 µM (inactive)
same,GI50,KM12,> 100 µM (inactive)
same,GI50,BT-549,> 100 µM (inactive)
same,GI50,SN12C,34.7 µM (inactive)
same,GI50,SF-295,> 100 µM (inactive)
same,GI50,T47D,5.07 µM (inactive)
same,GI50,MDA-N,> 100 µM (inactive)
same,GI50,MDA-MB-231,35.5 µM (inactive)
same,GI50,HCT-116,> 100 µM (inactive)
same,GI50,Hs-578T,48.6 µM (inactive)
same,GI50,SK-MEL-2,> 100 µM (inactive)
same,GI50,UACC-62,> 100 µM (inactive)
